These results are taken from US20200206198A1, “CFTR CHANNEL ACTIVATOR FOR USE IN THE TREATMENT AND/OR PREVENTION OF GLUTEN SENSITIVITY CONDITIONS” (priority 2017, published 2020).

Test [1] deals with gliadin-sensitive BALB/c mice. Briefly: Gliadin-sensitive BALB/c mice, 4-week oral gliadin challenge. The test is classed as in vivo, mouse. Here is the method:
In the first model, BALB/c mice are fed for at least three generations with a gluten-free diet, followed by a 4-week gliadin challenge, as described (Papista, C., et al. 2012). Ten week-old BALB/c mice were orally challenged for 4 weeks with gliadin or vehicle in the presence or absence of 2 mM VX-770 administered intraperitoneally 15 min prior to gliadin challenge (n=10 per treatment group). […] Moreover, VX-770 opposed the ability of gliadin to increase TG2 protein levels (FIG. 9c) and ERK 1/2 phosphorylation (FIG. 9d).
BALB/c mice (background BALB/cAnNCrl) were purchased from Charles River (Varese, Italy). Three generation gluten-free diet (Mucedola srl, Milan), male and female, were challenged with gliadin for 4 weeks. To assess the effects of VX-770 into a controlled environment, mice were challenged via gavage for 4 weeks with i) vehicle alone or ii) gliadin (SigmaAldich, G3375) (5 mg/daily for one week and then 5 mg/daily thrice a week for 3 weeks)(Moon, S. H., et al. 2016) in the presence or absence of intraperitoneal VX770 (0.075 mg/mice in 100 μl DMSO, 2 mM, SelleckchemS1144) or genistein (25 mg\kg in 100μ1 DMSO, SigmaAldrich), administered 15 minutes prior gliadin challenge (n=10 mice per group of treatment).
At the end of the last daily treatment, mice were anesthetized with Avertine (tribromoethanol, 250 mg/kg, Sigma Aldrich, T48402) and then killed; the intestines were collected for CFTR function analysis or stored for all described techniques.
Chambers for mounting either transwell cell cultures or mouse tissue biopsies were obtained from Physiologic Instruments (model P2300, San Diego, Calif., USA). Chamber solution was buffered by bubbling with identical Ringer solution on both sides and were maintained at 37° C., vigorously stirred, and gassed with 95% O2/[…]. Cells or tissues were short circuited using Ag/AgCl agar electrodes. A basolateral-to-apical chloride gradient was established by replacing NaCl with Na-gluconate in the apical (luminal) compartment to create a driving force for CFTR-dependent Cl secretion. To measure stimulated Isc, the changed sodium gluconate solution was supplied with 100 μM amiloride. Agonists (forskolin) were added to the bathing solutions as indicated (for a minimum 5 min of observation under each condition) to activate CFTR channels present at the apical surface of the epithelium (either cell surface or lumen side of the tissue) and CFTRInh-172 (10 μM) was added to the mucosal bathing solution to block CFTR-dependent Isc. Shortcircuit current (expressed as Isc (μA/cm2)) and resistance were acquired or calculated using the VCC600 transepithelial clamp from Physiologic Instruments and the Acquire & Analyze 2.3 software for data acquisition (Physiologic Instruments), as previously described Tosco A, et al. 2016; Romani, L. et al. 2017).
The whole lysate or membrane fraction proteins of cell lines and mice intestine homogenates were obtained from treated and untreated cells or mice as described. The equal amount of protein were resolved by SDS-PAGE gel and blotted with antibodies against: SQSTM1, (Sigma Aldrich, 108k4767) 1:1000, PPARγ (Santa Cruz Biotechnology, sc7273) 1:500, BECN1 (Abcam, ab58878) 1:1000, CFTR clone M3A7 (Abcam, ab4067) 1:500, phospho-ERK1/2 (php42/44, Cell Signaling Technology, #91101) 1:1000, UVRAG (Santa Cruz Biotechnology sc8215) 1:1000, NHERF-1 (BD, 611161) 1:1000, EZRIN (BD, 610603) 1:1000, hVps34 (SigmaV9764) 1:300, biotin (Abcam, ab1227) 1:2000, PKAr2a (BD, 610625) 1:500, Ubiquitin (Cell Signaling clone P4D1, #3936) 1:1000, CHIP (Calbiochem PC711) 1:500, Caspase-1 p10 (M-20) (Santa Cruz Biotechnology, sc-514) 1:200, NLRP3 (Abcam, ab4207), 1:500, IDO1 (monoclonal; cv152) 1:1000^[80], used as primary antibodies. Normalization was performed by probing the membrane with anti-β-actin (Cell Signaling, #4970) 1:1000, anti-Gapdh (Sigma-Aldrich, G8795) 1:1000 and anti-flottilin (Abcam ab15148) 1:1000 antibodies. […]

The subject of test [2] is rhNBD1 ATP binding site. Briefly: Intrinsic tryptophan (W401) fluorescence of NBD1. On the set-up: species or system human. As to conditions: preincubation of rhNBD1 with peptide. Here is the method:
To assess the capability of P31-43 peptide to bind NBD1 domain and modify its ATP binding site the intrinsic Tryptophan fluorescence of NBD1 was measured. Experiments were performed in a 0.2 ml fluorimeter cuvette at 25° C. using Varian Cary Eclipse fluorescence spectrophotometer. NBD1 protein was diluted to 1 μM in a buffer containing 50 mM Tris/HCl (pH 7.6), 150 mM NaCl, and 5 mM MgCl2, supplemented with 2 mM ATP and P31-43 5 μM when indicated. All spectra were corrected for buffer fluorescence. Excitation wavelength was adjusted to 292 nm and emission was scanned over the range 300-500 nm.

Where [3] appears, read: BALB/c mice small intestine homogenates.

Sequence of rhNBD1 ATP binding site (P13569 389-646 limits assumed): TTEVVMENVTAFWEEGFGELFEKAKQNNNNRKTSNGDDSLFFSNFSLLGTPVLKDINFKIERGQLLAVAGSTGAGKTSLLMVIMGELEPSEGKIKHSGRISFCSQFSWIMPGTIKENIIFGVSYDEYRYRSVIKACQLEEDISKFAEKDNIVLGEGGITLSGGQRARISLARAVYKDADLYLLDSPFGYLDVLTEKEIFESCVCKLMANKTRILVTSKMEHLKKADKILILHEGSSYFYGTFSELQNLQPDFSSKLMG

`CC(C)(C)c1cc(C(C)(C)C)c(NC(=O)c2c[nH]c3ccccc3c2=O)cc1O` [VX-770, N-(2,4-di-tert-butyl-5-hydroxyphenyl)-4-oxo-1,4-dihydroquinoline-3-carboxamide]: in test [1] (BALB/c mice), the “effect on gliadin induced expression of IL-21” value is “inhibited”. Moreover, in test [1] (BALB/c mice small intestine), the “effect on gliadin-induced NLRP3 expression” value was “counteracted”, the “effect on gliadin-induced caspase 1 cleavage” value is given as “counteracted” and the “effect on increased NKG2D expression by intraepithelial lymphocytes” value is given as “counteracted”. For the same molecule, in test [1] (setting [3]), the “Th1 transcription factor Tbet transcript” value was “downregulated” and the “Th17 transcription factor Rorc transcript” value is reported as “downregulated”. In test [1] (BALB/c mice, 2 mM VX-770 i.p. 15 min prior to gliadin), the “effect on gliadin-induced decrease of CFTR function in small intestines” value is “inhibitable”. Besides, in test [1] (BALB/c mice, VX-770 i.p.), the “effect on gliadin-induced ERK 1/2 phosphorylation” value is reported as “opposed” and the “effect on gliadin-induced increase of TG2 protein levels” value is “opposed”. Besides, in test [1] (BALB/c mice, p<0.001), the “effect on gliadin-induced increase of IFN-γ mRNA and protein” value is reported as “prevented”; the “effect on gliadin-induced increase of IL-15 mRNA and protein” value is listed as “prevented”; the “effect on gliadin-induced increase of IL-17A mRNA and protein” value was “prevented”. Further, in test [1] (gliadin-sensitive mice, ELISA), the IL-10 production entry is “restored” and the TGF-β production result is on record as “restored”.
Take “α-gliadin peptide LGQQQPFPPQQPY (SEQ ID 1), induces an enterocyte stress response (P31-43 sequence of alpha-gliadin)”: the “effect on ATP quenching of W401 fluorescence” value in test [2] was “quenching effect of ATP on W401 fluorescence was reduced”.
